Test results published in the CheMixHub viscosity set.

Test: xn = mol fraction of the nth substance listed

CCCCCl + C1CCOC1
viscosity [mPa·s], 101 kPa
Settings | 298.15 K | 313.15 K
x2 = 0.0418 | 0.4311 | 0.3702
x2 = 0.052 | 0.434 | –
x2 = 0.0524 | 0.4231 | 0.3656
x2 = 0.0982 | 0.4366 | 0.3758
x2 = 0.0985 | 0.439 | –
x2 = 0.108 | 0.425 | 0.3675
x2 = 0.153 | 0.443 | –
x2 = 0.1781 | 0.442 | 0.3808
x2 = 0.2063 | 0.4287 | 0.3706
x2 = 0.2076 | 0.444 | 0.3826
x2 = 0.29 | 0.449 | –
x2 = 0.2991 | 0.4324 | 0.3737
x2 = 0.2996 | 0.4479 | 0.3869
x2 = 0.36 | 0.452 | –
x2 = 0.4 | 0.4522 | 0.3911
x2 = 0.4088 | 0.4367 | 0.3772
x2 = 0.4229 | 0.455 | –
x2 = 0.445 | 0.456 | –
x2 = 0.4998 | 0.4547 | 0.3937
x2 = 0.507 | 0.4408 | 0.3804
x2 = 0.5395 | 0.457 | –
x2 = 0.5516 | 0.4553 | 0.3943
x2 = 0.5945 | 0.458 | –
x2 = 0.5979 | 0.4565 | 0.3955
x2 = 0.6074 | 0.4453 | 0.3838
x2 = 0.6605 | 0.459 | –
x2 = 0.6991 | 0.458 | 0.3977
x2 = 0.7001 | 0.4495 | 0.387
x2 = 0.7649 | 0.46 | –
x2 = 0.8021 | 0.4598 | 0.3997
x2 = 0.8054 | 0.4546 | 0.3907
x2 = 0.8499 | 0.46 | 0.3999
x2 = 0.8658 | 0.461 | –
x2 = 0.891 | 0.4587 | 0.3939
x2 = 0.8993 | 0.4607 | 0.4
x2 = 0.9108 | 0.46 | –
x2 = 0.9519 | 0.4598 | 0.4006
x2 = 0.9528 | 0.4613 | 0.3961

CCOC(=O)c1ccccc1 + C1CCOC1
viscosity [mPa·s], 101 kPa
Settings | x1 = 0.0601 | x1 = 0.1259 | x1 = 0.198 | x1 = 0.2773 | x1 = 0.3628 | x1 = 0.4611 | x1 = 0.5719 | x1 = 0.6953 | x1 = 0.8372
303.15 K | 0.488 | 0.545 | 0.617 | 0.706 | 0.804 | 0.937 | 1.083 | 1.257 | 1.474
308.15 K | 0.473 | 0.524 | 0.595 | 0.676 | 0.767 | 0.885 | 1.019 | 1.168 | 1.36
313.15 K | 0.436 | 0.49 | 0.553 | 0.626 | 0.706 | 0.809 | 0.928 | 1.063 | 1.229

[Li+].[O-][Cl+3]([O-])([O-])[O-] + C1CCOC1
101 kPa, x1 = 0.07
Settings | viscosity [mPa·s]
303.15 K | 0.85
308.15 K | 0.81
313.15 K | 0.78
318.15 K | 0.74
323.15 K | 0.71

C1=CCCCC1 + C1COCCO1
303.15 K, 101 kPa
Settings | viscosity [mPa·s]
x1 = 0.1067 | 0.932
x1 = 0.2617 | 0.833
x1 = 0.3551 | 0.789
x1 = 0.4267 | 0.754
x1 = 0.4787 | 0.734
x1 = 0.5637 | 0.702
x1 = 0.6603 | 0.668
x1 = 0.7706 | 0.634
x1 = 0.8678 | 0.606

CC1CCCCC1 + C1COCCO1
303.15 K, 101.3 kPa
Settings | viscosity [mPa·s]
x2 = 0.1001 | 0.6334
x2 = 0.2013 | 0.6394
x2 = 0.296 | 0.653
x2 = 0.3948 | 0.6802
x2 = 0.5046 | 0.7196
x2 = 0.5993 | 0.7612
x2 = 0.7003 | 0.8213
x2 = 0.7956 | 0.8868
x2 = 0.896 | 0.9775

CCOC(=O)c1ccccc1 + C1COCCO1
viscosity [mPa·s], 101 kPa
Settings | x1 = 0.0639 | x1 = 0.1304 | x1 = 0.1626 | x1 = 0.2849 | x1 = 0.3735 | x1 = 0.4716 | x1 = 0.5805 | x1 = 0.7048 | x1 = 0.8402
303.15 K | 1.118 | 1.155 | 1.172 | 1.246 | 1.296 | 1.369 | 1.445 | 1.535 | 1.633
308.15 K | 1.026 | 1.062 | 1.078 | 1.146 | 1.195 | 1.259 | 1.33 | 1.416 | 1.502
313.15 K | 0.972 | 1.001 | 1.013 | 1.069 | 1.108 | 1.16 | 1.214 | 1.279 | 1.348
